We go through seven compounds from patent US20260015350A1, “AZAQUINAZOLINE PAN-KRAS INHIBITORS” (Mirati Therapeutics, Inc., priority 2022, published 2026).

In one test the target is T1, KRas^G12V (Homo sapiens, UniProt P01116, G12V).
T1 construct: Biotinylated KRas (corresponding to amino acids 1-169, produced at Accelegan Inc.); biotin (biotinylated); purchased Accelegan Inc
The test is described as follows: KRas binding assay (TR-FRET tracer displacement), KRas G12V. (TR-FRET usually uses a lanthanide donor and a delayed reading to cut background.)

The target of a further test is T2, KRas^G13D (Homo sapiens, UniProt P01116, G13D).
T2 construct: Biotinylated KRas (corresponding to amino acids 1-169, produced at Accelegan Inc.); biotin (biotinylated); purchased Accelegan Inc
The test is described as follows: KRas binding assay (TR-FRET tracer displacement), KRas G13D. The settings on record: TR-FRET tracer displacement, KRas G13D.

The subject of test [1] is KRas-mediated phosphorylation of ERK in H358 cells. The test is described as follows: Inhibition of KRas-mediated phosphorylation of ERK (Cisbio HTRF pERK), H358 cells. The format is cell-based. The settings on record: Homo sapiens, NCI-H358, 3 h, single point, 100 nM compound, 3 hrs. The method in brief: (§1)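 Signal read by HTRF (d2/Cryptate antibody pair, 2 hr room-temperature incubation on lysate). Cells: 6,000 per well, 3 hr compound exposure. Titration: 10 uM highest, 3-fold, 10 points.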

Another test addresses T3, KRas^WT (Homo sapiens, UniProt P01116).
T3 construct: Biotinylated KRas (corresponding to amino acids 1-169, produced at Accelegan Inc.); biotin (biotinylated); purchased Accelegan Inc
The test is described as follows: KRas binding assay (TR-FRET tracer displacement), KRas WT. The settings on record: TR-FRET tracer displacement, KRas WT.

Another test deals with T4, KRas^G12C (Homo sapiens, UniProt P01116, G12C).
T4 construct: Biotinylated KRas (corresponding to amino acids 1-169, produced at Accelegan Inc.); biotin (biotinylated); purchased Accelegan Inc
The test is described as follows: KRas binding assay (TR-FRET tracer displacement), KRas G12C. The following applies: TR-FRET tracer displacement, KRas G12C.

A further test has as its target T5, KRas^Q61H (Homo sapiens, UniProt P01116, Q61H).
T5 construct: Biotinylated KRas (corresponding to amino acids 1-169, produced at Accelegan Inc.); biotin (biotinylated); purchased Accelegan Inc
The test is described as follows: KRas binding assay (TR-FRET tracer displacement), KRas Q61H. The following applies: TR-FRET tracer displacement, KRas Q61H.

A further test deals with T6, KRas^G12D (Homo sapiens, UniProt P01116, G12D).
T6 construct: Biotinylated KRas (corresponding to amino acids 1-169, produced at Accelegan Inc.); biotin (biotinylated); purchased Accelegan Inc
The test is described as follows: KRas binding assay (TR-FRET tracer displacement), KRas G12D.

Test [2] relates to KRas-mediated phosphorylation of ERK in AsPC-1 cells. The test is described as follows: Inhibition of KRas-mediated phosphorylation of ERK (Cisbio HTRF pERK), AsPC-1 cells. The format is cell-based. The following applies: Homo sapiens; for inhibition at 0.1 µM: ASPC1, 3 h, single point, 100 nM compound, 3 hrs, AsPC-1 cells; for IC50: ASPC1, AsPC-1 cells, HTRF pERK. The method in brief: as §1

Another test addresses T7, KRas^G12R (Homo sapiens, UniProt P01116, G12R).
T7 construct: Biotinylated KRas (corresponding to amino acids 1-169, produced at Accelegan Inc.); biotin (biotinylated); purchased Accelegan Inc
The test is described as follows: KRas binding assay (TR-FRET tracer displacement), KRas G12R.

A further test concerns the target T8, KRas^G12A (Homo sapiens, UniProt P01116, G12A).
T8 construct: Biotinylated KRas (corresponding to amino acids 1-169, produced at Accelegan Inc.); biotin (biotinylated); purchased Accelegan Inc
The test is described as follows: KRas binding assay (TR-FRET tracer displacement), KRas G12A. The settings on record: TR-FRET tracer displacement, KRas G12A.

Test [3] concerns KRas-mediated phosphorylation of ERK in A549 cells. The test is described as follows: Inhibition of KRas-mediated phosphorylation of ERK (Cisbio HTRF pERK), A549 cells. The format is cell-based. The following applies: Homo sapiens, A549, 3 h, single point, 100 nM compound, 3 hrs. The method in brief:
(§2)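 A cell-based HTRF pERK assay: ten-point, threefold titrations beginning at 10 uM were applied for 3 hrs, with 0.2 uM Trametinib wells as the minimum control. Cells were lysed cold, and lysate was incubated with the antibody pair for 2 hrs before reading.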

The test system of test [4] is KRas-mediated phosphorylation of ERK in H727 cells. The test is described as follows: Inhibition of KRas-mediated phosphorylation of ERK (Cisbio HTRF pERK), H727 cells. The format is cell-based. The following applies: Homo sapiens; for inhibition at 0.1 µM: NCI-H727, 3 h, single point, 100 nM compound, 3 hrs, H727 cells; for IC50: NCI-H727, H727 cells, HTRF pERK. The method in brief:
as §1

For another test, the target named is T9, KRas^G12S (Homo sapiens, UniProt P01116, G12S).
T9 construct: Biotinylated KRas (corresponding to amino acids 1-169, produced at Accelegan Inc.); biotin (biotinylated); purchased Accelegan Inc
The test is described as follows: KRas binding assay (TR-FRET tracer displacement), KRas G12S. The settings on record: TR-FRET tracer displacement, KRas G12S.

Test [5] relates to KRas-mediated phosphorylation of ERK in H460 cells. The test is described as follows: Inhibition of KRas-mediated phosphorylation of ERK (Cisbio HTRF pERK), H460 cells. The format is cell-based. The settings on record: Homo sapiens, NCI-H460, 3 h, single point, 100 nM compound, 3 hrs. The method in brief: as §1
Test [6] has as its system KRas-mediated phosphorylation of ERK in HCT116 cells. The test is described as follows: Inhibition of KRas-mediated phosphorylation of ERK (Cisbio HTRF pERK), HCT116 cells. The format is cell-based. The following applies: Homo sapiens, HCT-116, 3 h, single point, 100 nM compound, 3 hrs. The method in brief: as §2

SMILES strings stand for the structures.

T2 sequence (P01116 1-169 isoform P01116-2 G13D): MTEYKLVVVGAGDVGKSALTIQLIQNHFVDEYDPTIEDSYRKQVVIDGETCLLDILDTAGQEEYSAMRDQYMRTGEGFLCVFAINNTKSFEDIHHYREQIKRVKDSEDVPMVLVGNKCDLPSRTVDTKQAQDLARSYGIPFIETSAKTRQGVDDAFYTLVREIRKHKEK
T3 sequence (P01116 1-169 isoform P01116-2): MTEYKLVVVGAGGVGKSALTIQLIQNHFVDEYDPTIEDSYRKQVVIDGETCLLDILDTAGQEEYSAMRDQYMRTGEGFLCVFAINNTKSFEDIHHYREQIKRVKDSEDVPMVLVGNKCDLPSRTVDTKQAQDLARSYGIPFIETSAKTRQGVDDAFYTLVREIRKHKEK
T8 sequence (P01116 1-169 isoform P01116-2 G12A): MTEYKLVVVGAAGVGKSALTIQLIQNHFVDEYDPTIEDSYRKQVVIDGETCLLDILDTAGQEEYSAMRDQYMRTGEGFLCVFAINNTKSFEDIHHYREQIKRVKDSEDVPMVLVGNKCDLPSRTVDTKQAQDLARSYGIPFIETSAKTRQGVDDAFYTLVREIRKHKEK
T4 sequence (P01116 1-169 isoform P01116-2 G12C): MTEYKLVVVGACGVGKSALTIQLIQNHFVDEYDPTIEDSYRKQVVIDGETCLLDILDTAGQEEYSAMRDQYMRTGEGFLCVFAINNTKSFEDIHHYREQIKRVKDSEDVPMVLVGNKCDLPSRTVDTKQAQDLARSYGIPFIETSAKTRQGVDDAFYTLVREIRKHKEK
T5 sequence (P01116 1-169 isoform P01116-2 Q61H): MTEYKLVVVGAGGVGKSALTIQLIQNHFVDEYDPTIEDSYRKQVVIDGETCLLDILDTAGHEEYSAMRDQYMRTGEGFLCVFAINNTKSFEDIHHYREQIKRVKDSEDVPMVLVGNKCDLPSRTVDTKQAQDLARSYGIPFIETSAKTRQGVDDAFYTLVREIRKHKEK
T6 sequence (P01116 1-169 isoform P01116-2 G12D): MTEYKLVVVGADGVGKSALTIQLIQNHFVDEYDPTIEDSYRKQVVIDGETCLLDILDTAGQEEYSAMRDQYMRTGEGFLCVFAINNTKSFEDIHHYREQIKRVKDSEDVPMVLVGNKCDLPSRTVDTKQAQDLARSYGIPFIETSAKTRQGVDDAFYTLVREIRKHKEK
T7 sequence (P01116 1-169 isoform P01116-2 G12R): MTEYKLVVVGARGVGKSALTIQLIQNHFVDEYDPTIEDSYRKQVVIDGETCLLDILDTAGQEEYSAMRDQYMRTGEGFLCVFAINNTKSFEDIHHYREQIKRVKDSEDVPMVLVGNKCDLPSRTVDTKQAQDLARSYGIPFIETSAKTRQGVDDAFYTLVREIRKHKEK
T1 sequence (P01116 1-169 isoform P01116-2 G12V): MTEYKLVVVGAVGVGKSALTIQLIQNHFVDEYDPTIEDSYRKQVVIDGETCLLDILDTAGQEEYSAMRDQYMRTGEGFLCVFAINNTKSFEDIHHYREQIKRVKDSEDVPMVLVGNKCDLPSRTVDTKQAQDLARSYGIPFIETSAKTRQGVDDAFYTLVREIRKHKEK
T9 sequence (P01116 1-169 isoform P01116-2 G12S): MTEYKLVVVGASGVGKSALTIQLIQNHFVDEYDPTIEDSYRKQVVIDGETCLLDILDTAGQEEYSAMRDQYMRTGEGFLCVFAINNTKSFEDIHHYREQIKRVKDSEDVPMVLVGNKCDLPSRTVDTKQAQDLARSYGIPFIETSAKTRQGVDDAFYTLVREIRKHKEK

One may read the IC50 as the concentration at which inhibition is half-maximal. A word on the inhibition: it is the change of the read-out against control, counted positive when it falls. On to `Cc1cc2[nH]c(=O)[nH]c2c(-c2ncc3c(N4CCC[C@@](C)(O)C4)nc(OCC45CCCN4CCC5)nc3c2F)c1C` [Example 733, 4-(8-fluoro-4-((R)-3-hydroxy-3-methylpiperidin-1-yl)-2-((tetrahydro-1H-pyrrolizin-7a(5H)-yl)methoxy)pyrido[4,3-d]pyrimidin-7-yl)-5,6-dimethyl-1,3-dihydro-2H-benzo[d]imidazol-2-one], for which the 50% inhibitory concentration (IC50) stood at 1050 nM at KRas^G12V; 1410 nM at KRas^G13D; 1370 nM at KRas^WT; 1520 nM at KRas^G12C; 2280 nM on KRas^Q61H; 933 nM at KRas^G12D. The half-maximal inhibitory concentration (IC50) on KRas^G12R was 2670 nM; at KRas^G12A it was 1520 nM; at KRas^G12S, 1400 nM. In addition, the inhibition at 0.1 µM in test [1] was -2%; in [2], -27%; in test [3], 7%; in [4] it was -10%.

For the compound `Nc1nc2c(-c3ncc4c(N5CCCC6(C5)NC(=O)NC6=O)nc(OCC56CCCN5CCC6)nc4c3F)ccc(F)c2s1` (centres unmarked) [Example 736, 7-(7-(2-amino-7-fluorobenzo[d]thiazol-4-yl)-8-fluoro-2-((tetrahydro-1H-pyrrolizin-7a(5H)-yl)methoxy)pyrido[4,3-d]pyrimidin-4-yl)-1,3,7-triazaspiro[4.5]decane-2,4-dione], the IC50 at KRas^G12V worked out at 664 nM; at KRas^G13D, 93 nM; on KRas^WT, 139 nM; on KRas^G12C it was 111 nM; at KRas^Q61H, 26 nM; at KRas^G12D, 2330 nM. The IC50 at KRas^G12R came to 640 nM; at KRas^G12A it was 173 nM; on KRas^G12S, 75 nM. Also, the inhibition at 0.1 µM in test [1] is 5%; in test [2], -3%; in [3], 2%; in [4] it was -4%.

Consider `Oc1cc2ccccc2c(-c2ncc3c(N4C[C@@H]5C[C@H](C4)[C@H](O)C5)nc(OC[C@@]45CCCN4C[C@H](F)C5)nc3c2F)c1F` [Example 751, (1R,5R,6R)-3-(8-fluoro-7-(2-fluoro-3-hydroxynaphthalen-1-yl)-2-(((2R,7aS)-2-fluorohexahydro-1H-pyrrolizin-7a-yl)methoxy)pyrido[4,3-d]pyrimidin-4-yl)-3-azabicyclo[3.2.1]octan-6-ol], for which the IC50 was found to be 93 nM at KRas^G12V; 172 nM on KRas^G13D; 167 nM on KRas^WT; 165 nM at KRas^G12C; 185 nM at KRas^Q61H; 372 nM at KRas^G12D. The IC50 in [2] worked out at 5220 nM; on KRas^G12R, 139 nM; on KRas^G12A, 136 nM; in test [4], 3830 nM; at KRas^G12S, 91 nM. Besides, the inhibition at 0.1 µM in test [1] was -17%; in test [2], -2%; in test [3], -10%; in test [4], -50%.

Turning to `CN(C)C(=O)c1cc2n(n1)CCCN(c1nc(OCC34CCCN3CCC4)nc3c(F)c(-c4c5ccccc5cc5[nH]ncc45)ncc13)C2` [Example 757, 5-(7-(1H-benzo[f]indazol-4-yl)-8-fluoro-2-((hexahydro-1H-pyrrolizin-7a-yl)methoxy)pyrido[4,3-d]pyrimidin-4-yl)-N,N-dimethyl-5,6,7,8-tetrahydro-4H-pyrazolo[1,5-a][1,4]diazepine-2-carboxamide], the concentration for half-maximal inhibition (IC50) came out at 42 nM at KRas^G12V; 238 nM on KRas^G13D; 141 nM on KRas^WT; 46 nM at KRas^G12C; 203 nM at KRas^Q61H; 12 nM on KRas^G12D. For the same compound, the IC50 in [2] was 9840 nM; on KRas^G12R, 101 nM; on KRas^G12A, 82 nM; in [4], greater than 10000 nM; on KRas^G12S it was 43 nM. The inhibition at 0.1 µM in [1] was determined as 10%; in test [3] it was 2%.

`Oc1cc2ccccc2c(-c2ncc3c(N4C[C@@H]5C[C@H](C4)[C@H](O)C5)nc(OC[C@@]45CCCN4C[C@H](F)C5)nc3c2F)c1Cl` [Example 765, (1R,5R,6R)-3-(7-(2-chloro-3-hydroxynaphthalen-1-yl)-8-fluoro-2-(((2R,7aS)-2-fluorohexahydro-1H-pyrrolizin-7a-yl)methoxy)pyrido[4,3-d]pyrimidin-4-yl)-3-azabicyclo[3.2.1]octan-6-ol]: the half-inhibitory concentration (IC50) at KRas^G12V came to 83 nM; on KRas^G13D, 146 nM; at KRas^WT, 156 nM; on KRas^G12C it was 144 nM; on KRas^Q61H, 164 nM; at KRas^G12D it was 268 nM. In addition, the 50% inhibitory concentration (IC50) amounted to 5910 nM in [2]; 132 nM at KRas^G12R; 139 nM on KRas^G12A; 2910 nM in [4]; 100 nM at KRas^G12S. The inhibition at 0.1 µM in test [1] is -5%; in test [2], -6%; in [3], 28%; in test [4] it was -13%.

For the compound `Oc1cc(-c2ncc3c(N4C[C@@H]5C[C@H](C4)[C@H](O)C5)nc(OC[C@@]45CCCN4C[C@H](F)C5)nc3c2F)c2ccccc2c1Br` [Example 781, (1R,5R,6R)-3-(7-(4-bromo-3-hydroxynaphthalen-1-yl)-8-fluoro-2-(((2R,7aS)-2-fluorohexahydro-1H-pyrrolizin-7a-yl)methoxy)pyrido[4,3-d]pyrimidin-4-yl)-3-azabicyclo[3.2.1]octan-6-ol], the IC50 was 727 nM on KRas^G12V; 551 nM at KRas^G13D; 754 nM at KRas^WT; 635 nM on KRas^G12C; 891 nM at KRas^Q61H; 2450 nM on KRas^G12D. Besides, the 50% inhibitory concentration (IC50) in test [2] is 8950 nM; on KRas^G12R it was 778 nM; at KRas^G12A, 716 nM; in test [4], greater than 10000 nM; at KRas^G12S, 414 nM. Also, the values for the inhibition at 0.1 µM in test [1] and in test [3] were 10% and -24%, respectively.

For the compound `Cc1cc2c(c(-c3ncc4c(N5CCC[C@@](C)(O)C5)nc(OCC56CCCN5CCC6)nc4c3F)c1C)CC(=O)N2` [Example 784, 4-(8-fluoro-2-((hexahydro-1H-pyrrolizin-7a-yl)methoxy)-4-((R)-3-hydroxy-3-methylpiperidin-1-yl)pyrido[4,3-d]pyrimidin-7-yl)-5,6-dimethylindolin-2-one], the IC50 at KRas^G12V is 1920 nM; on KRas^G13D it was 471 nM; on KRas^WT, 665 nM; at KRas^G12C, 480 nM; on KRas^Q61H it was 746 nM; on KRas^G12D, 1320 nM. The values for the IC50 at KRas^G12R, on KRas^G12A and at KRas^G12S were 4490 nM, 717 nM and 475 nM, respectively. Besides, the inhibition at 0.1 µM worked out at 9% in test [5], 19% in [2], 9% in [6] and 0% in test [4].
